Literature values, collected in US11872093B1, “Method of marking lesions” (NoduGloH LLC, priority 2022, dated 2024).

Details: ICG dye marking without use of a coil

persistence of dye effect after marking without a coil: fade away over several hours
SMILES: CC1(C)C(/C=C/C=C/C=C/C=C2\N(CCCCS(=O)(=O)O)c3ccc4ccccc4c3C2(C)C)=[N+](CCCCS(=O)(=O)[O-])c2ccc3ccccc3c21 [ICG dye, Indocyanine Green]
